Assay results published in ChEMBL document CHEMBL1932914, “A new class of non-thiazolidinedione, non-carboxylic-acid-based highly selective peroxisome proliferator-activated receptor (PPAR) γ agonists: design and synthesis of benzylpyrazole acylsulfonamides” (Bioorg Med Chem, 2012).
pEC50, pIC50: −log10 of the molar value. Calls of active or inactive are those of the source. The calls are words filed in the database; no cut-off is given here.

Tests used:
[1] = Clearance in human liver microsomes at 1 umol/L after 20 mins by HPLC analysis; type: ADME, Microsome; conditions: read-out: CLH
[2] = target: T1, Peroxisome proliferator-activated receptor gamma (Homo sapiens, UniProt P37231); assay: Agonist activity at full length human PPARgamma1 transfected in […] cells co expressing RXRalpha and PPRE after 1 day by luciferase reporter gene transactivation assay; type: functional, cell-based, CHO-K1; conditions: for pEC50: read-out: EC50
T1 sequence (P37231 whole entry): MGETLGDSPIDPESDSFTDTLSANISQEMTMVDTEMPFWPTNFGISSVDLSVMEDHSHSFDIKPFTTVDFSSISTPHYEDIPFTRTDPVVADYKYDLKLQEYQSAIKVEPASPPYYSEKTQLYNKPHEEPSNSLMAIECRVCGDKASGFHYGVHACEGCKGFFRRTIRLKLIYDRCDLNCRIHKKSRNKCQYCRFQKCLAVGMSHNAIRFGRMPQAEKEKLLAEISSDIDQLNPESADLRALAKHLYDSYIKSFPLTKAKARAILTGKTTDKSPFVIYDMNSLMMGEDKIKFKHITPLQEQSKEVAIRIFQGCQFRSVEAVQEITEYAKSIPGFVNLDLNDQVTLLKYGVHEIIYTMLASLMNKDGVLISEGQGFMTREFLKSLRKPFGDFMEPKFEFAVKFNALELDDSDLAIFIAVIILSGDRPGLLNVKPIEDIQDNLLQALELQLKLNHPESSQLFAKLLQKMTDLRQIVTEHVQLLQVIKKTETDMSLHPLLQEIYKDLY

[3] = species: Homo sapiens; assay: Selectivity ratio of EC50 for human PPARalpha to EC50 for human PPARgamma1
[4] = target: PPAR delta/gamma (Homo sapiens) (UniProt P37231+Q03181); assay: Selectivity ratio of EC50 for human PPARdelta to EC50 for human PPARgamma1
[5] = target: T2, Peroxisome proliferator-activated receptor alpha (Homo sapiens, UniProt Q07869); assay: Agonist activity at human PPARalpha expressed in COS-1 cells after 1 day by luciferase reporter gene transactivation assay; type: functional, cell-based
T2 sequence (Q07869 whole entry): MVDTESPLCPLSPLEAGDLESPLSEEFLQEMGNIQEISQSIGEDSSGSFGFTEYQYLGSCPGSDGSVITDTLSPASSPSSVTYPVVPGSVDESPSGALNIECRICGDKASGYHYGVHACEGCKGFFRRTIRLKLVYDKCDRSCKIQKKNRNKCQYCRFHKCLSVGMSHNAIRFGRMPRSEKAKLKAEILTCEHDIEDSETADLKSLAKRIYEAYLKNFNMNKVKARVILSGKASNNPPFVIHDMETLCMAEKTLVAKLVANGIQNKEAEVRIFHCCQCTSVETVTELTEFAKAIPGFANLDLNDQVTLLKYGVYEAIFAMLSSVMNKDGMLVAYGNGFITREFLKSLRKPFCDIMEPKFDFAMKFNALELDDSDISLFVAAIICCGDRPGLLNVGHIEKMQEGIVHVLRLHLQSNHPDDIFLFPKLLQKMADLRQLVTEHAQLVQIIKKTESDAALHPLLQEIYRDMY

[6] = target: T3, Peroxisome proliferator-activated receptor delta (Homo sapiens, UniProt Q03181); assay: Agonist activity at human PPARdelta expressed in COS-1 cells after 2 days by luciferase reporter gene transactivation assay; type: functional, cell-based
T3 sequence (Q03181 whole entry): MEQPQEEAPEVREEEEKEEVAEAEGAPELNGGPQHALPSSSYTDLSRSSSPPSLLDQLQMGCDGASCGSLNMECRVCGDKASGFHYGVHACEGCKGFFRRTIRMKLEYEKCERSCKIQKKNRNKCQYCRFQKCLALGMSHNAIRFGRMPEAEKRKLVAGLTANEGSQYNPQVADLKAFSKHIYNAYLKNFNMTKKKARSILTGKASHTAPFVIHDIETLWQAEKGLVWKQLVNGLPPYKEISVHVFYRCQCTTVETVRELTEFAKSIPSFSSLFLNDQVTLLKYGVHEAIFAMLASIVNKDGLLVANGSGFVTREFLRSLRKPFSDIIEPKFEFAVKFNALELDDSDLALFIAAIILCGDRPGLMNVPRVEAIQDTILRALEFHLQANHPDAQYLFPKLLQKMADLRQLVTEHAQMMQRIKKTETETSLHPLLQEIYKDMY

[7] = tested on: Rattus norvegicus; assay: Antidiabetic activity in po dosed fatty Wister rat assessed as reduction of plasma glucose level administered once daily for 7 days; type: functional; conditions: for ED25: 168 h
[8] = Clearance in rat liver microsomes at 1 umol/L after 20 mins by HPLC analysis; type: ADME, Microsome; conditions: read-out: CLH
[9] = target: T1, Peroxisome proliferator-activated receptor gamma; assay: Displacement of [3H]-AD-5061 from human GST-tagged PPARgamma
[10] = target: T4, Peroxisome proliferator-activated receptor alpha (Homo sapiens) (UniProt Q07869); assay: Binding affinity to PPARalpha at 10 uM by competitive binding assay
T4 sequence (whole entry): T2 sequence (Q07869 whole entry)

[11] = tested on: Rattus norvegicus; assay: Antidiabetic activity in po dosed fatty Wister rat assessed as reduction of triglyceride level administered once daily for 7 days; type: functional; conditions: for ED25: 168 h
[12] = target: T5, Peroxisome proliferator-activated receptor delta (Homo sapiens) (UniProt Q03181); assay: Binding affinity to PPARdelta at 10 uM by competitive binding assay
T5 sequence (whole entry): T3 sequence (Q03181 whole entry)

[13] = target: T4, Peroxisome proliferator-activated receptor alpha (Homo sapiens); assay: Agonist activity at human PPARalpha expressed in COS-1 cells at 10 uM after 1 day by luciferase reporter gene transactivation assay; type: functional, cell-based

SMILES | microsomal CLint at 1 µM [1] [µL/min/mg] | pEC50 [2] | Ratio EC50 [3] | Ratio EC50 [4] | pEC50 [5] | pEC50 [6] | further results
CC(C)Oc1cc(CCC(=O)NS(=O)(=O)Cc2ccccc2)n(Cc2ccc(Cl)cc2Cl)n1 | 107 | 6.59 |  |  |  |  | 
CCCCCS(=O)(=O)NC(=O)/C=C/c1cc(C(C)C)nn1Cc1ccc(Cl)cc1Cl | 99 | 8.09 | > 500 | > 500 | < 5.00 | < 5.00 | 
CC(C)CCS(=O)(=O)NC(=O)CCc1cc(OC(C)C)nn1Cc1ccc(Cl)cc1Cl |  | 7.77 |  |  | < 5.00 | < 5.00 | 
CCCCCS(=O)(=O)NC(=O)CCc1cc(OCCCC)nn1Cc1ccc(Cl)cc1Cl |  |  |  |  | < 5.00 | < 5.00 | 
CCCCCS(=O)(=O)NC(=O)c1cc(OCCCC)nn1Cc1ccc(Cl)cc1Cl |  |  |  |  |  |  | EC50 ([2]; cho-k1): Not Active
CCCCCS(=O)(=O)NC(=O)/C=C/c1cc(OC(C)C)nn1Cc1ccc(Cl)cc1Cl | 29 |  | > 500 | > 500 | < 5.00 | < 5.00 | 
CCCCCS(=O)(=O)NC(=O)CCc1cc(OC(C)C)nn1Cc1ccc(Cl)cc1Cl | 192 |  | > 500 | > 500 |  |  | Activity [7]: inactive; microsomal CLint at 1 µM [8]: 128 µL/min/mg
CC(C)Oc1cc(CCC(=O)NS(=O)(=O)c2ccccc2)n(Cc2ccc(Cl)cc2Cl)n1 |  | 6.96 |  |  | < 5.00 | < 5.00 | 
CC(C)Oc1cc(CCC(=O)NS(=O)(=O)C2CCCCC2)n(Cc2ccc(Cl)cc2Cl)n1 |  | 6.82 |  |  | < 5.00 | < 5.00 | 
CCCCS(=O)(=O)NC(=O)CCc1cc(OC(C)C)nn1Cc1ccc(Cl)cc1Cl | 165 | 7.40 |  |  | < 5.00 | < 5.00 | 
CCCS(=O)(=O)NC(=O)CCc1cc(OC(C)C)nn1Cc1ccc(Cl)cc1Cl |  | 6.80 |  |  |  |  | 
CCCCCCS(=O)(=O)NC(=O)CCc1cc(OC(C)C)nn1Cc1ccc(Cl)cc1Cl |  | 7.68 |  |  | < 5.00 | < 5.00 | 
CCCCCS(=O)(=O)NC(=O)CCc1cc(-c2ccccc2)nn1Cc1ccc(Cl)cc1Cl | 111 | 7.96 |  |  | < 5.00 | < 5.00 | 
CC(C)Oc1cc(CCC(=O)NS(C)(=O)=O)n(Cc2ccc(Cl)cc2Cl)n1 |  | 6.35 |  |  |  |  | 
CCCCCS(=O)(=O)NC(=O)CCc1cc(OCCOC)nn1Cc1ccc(Cl)cc1Cl | 144 | 7.51 |  |  | < 5.00 | < 5.00 | 
CCCCCS(=O)(=O)NC(=O)CCCCc1cc(OCCCC)nn1Cc1ccc(Cl)cc1Cl |  | 7.54 |  |  |  |  | 
CCCCCS(=O)(=O)NC(=O)CCc1cc(C(C)C)nn1Cc1ccc(C(F)(F)F)cc1Cl | 136 |  | > 500 | > 500 | < 5.00 | < 5.00 | 
CCCCCS(=O)(=O)NC(=O)/C=C/c1cc(C2CC2)nn1Cc1ccc(C(F)(F)F)cc1Cl | 54 |  | > 500 | > 500 | < 5.00 | < 5.00 | pIC50 [9]: 7.92; Activity [7]: Dose-dependent effect; ED25 [7]: 0.42 mg/kg; Activity [10]: inactive; Activity [11]: Dose-dependent effect; ED25 [11]: 0.55 mg/kg; microsomal CLint at 1 µM [8]: 116 µL/min/mg; Activity [12]: inactive
CCCCCS(=O)(=O)NC(=O)/C=C/c1cc(OC(C)C)nn1Cc1ccc(C(F)(F)F)cc1Cl | 26 |  | > 500 | > 500 | < 5.00 | < 5.00 | pIC50 [9]: 7.64; Activity [7]: Dose-dependent effect; ED25 [7]: 0.12 mg/kg; Activity [10]: inactive; Activity [11]: Dose-dependent effect; ED25 [11]: 0.04 mg/kg; microsomal CLint at 1 µM [8]: 33 µL/min/mg; Activity [12]: inactive
CCCCCS(=O)(=O)NC(=O)CCc1cc(C2CC2)nn1Cc1ccc(C(F)(F)F)cc1Cl | 78 | 7.89 | > 500 | > 500 | < 5.00 | < 5.00 | 
CCCCCS(=O)(=O)NC(=O)CCc1cc(OC(C)C)nn1Cc1ccc(C(F)(F)F)cc1Cl | 163 | 8.00 | > 500 | > 500 | < 5.00 | < 5.00 | pIC50 [9]: 7.68; Activity [10]: inactive; Activity [12]: inactive
CC(C)Oc1cc(CCC(=O)O)n(Cc2ccc(Cl)cc2Cl)n1 |  | 6.30 |  |  |  |  | 
CCCCCS(=O)(=O)NC(=O)CCc1cc(OCc2ccccn2)nn1Cc1ccc(Cl)cc1Cl | 224 | 6.92 |  |  | < 5.00 | < 5.00 | 
CCCCCS(=O)(=O)NC(=O)CCc1cc(C(C)C)nn1Cc1ccc(Cl)cc1Cl | 124 | 7.89 | > 500 | > 500 | < 5.00 | < 5.00 | 
CCCCCS(=O)(=O)NC(=O)CCc1cc(OCc2ccccc2)nn1Cc1ccc(Cl)cc1Cl | 100 | 7.85 |  |  | < 5.00 | < 5.00 | 
CCCCCS(=O)(=O)NC(=O)CCCc1cc(OCCCC)nn1Cc1ccc(Cl)cc1Cl |  | 7.17 |  |  |  |  | 
CCCCCS(=O)(=O)NC(=O)Cc1cc(OCCCC)nn1Cc1ccc(Cl)cc1Cl |  | < 5.00 |  |  |  |  | 
COCCOc1cc(/C=C/C(=O)NS(=O)(=O)CCC(C)C)n(Cc2ccc(C(F)(F)F)cc2Cl)n1 | 34 | 8.05 | > 500 | > 500 | < 5.00 | < 5.00 | Activity [13]: 47%
